# Results from patent US8022056B2, “Compositions and methods for the treatment of cancer” (Tautatis, Inc, priority 2006, dated 2011).
# Key:
# [1] = test system: OVCAR-3 xenograft; assay: Mouse xenograft model OVCAR-3; type: in vivo; conditions: Ovarian, p53; oral twice daily dosing
# Description: (§1) The efficacy of the compound of the formula 1 was confirmed in mouse tumor xenograft models, employing the NMRI(nu/nu) strain of mice. For example, cells from the human tumor cell lines MDA-MB-231, U373, and HT29 were pre-incubated subcutaneously in several nude mice to select for the most robustly growing cell population. After having grown to a sufficient size after 2-3 weeks, a piece of about 2 mm^3 volume of the most suitable tumor was transplanted subcutaneously into the region of the thoracic mammary fat pads, an area ensuring a high degree of vascularization of the grafted tissue. […] During the course of the treatment, the weight of the animals and the size of the transplanted tumor was monitored three times a week. […] These doses are best determined separately for each individual mouse strain employed.
# (§2) To establish a solid tumour 3×10^6 tumor cells suspended in 100 μl of serum free medium (RPMI) were inoculated subcutaneously into the region of the thoracic mammary fat pads of 5 Male NMRI(nu/nu) mice of 8-10 weeks of age. […] During the course of the treatment body weight changes and tumor growth were recorded three times a week. Growth curves were plotted together with standard deviations and the significance of differences was determined using an unpaired t-test in FIG. 11. […]
# [2] = target: PKA; assay: Kinase inhibition under standard conditions, PKA; type: biochemical
# [3] = target: GSK3; assay: Kinase inhibition under standard conditions, GSK3; type: biochemical
# [4] = test system: U373 glioblastoma cell line; assay: Long-term growth inhibition, crystal violet staining; type: cell-based, human; conditions: 10 nM, over a week
# Description: For proliferation assays tumor cell suspensions (100 μl/well) were seeded into 96-well flat bottomed microtitration plates at a density of ca. 15 cells/microscopic field (magnification 320×). After 2-3 days the culture medium was removed by suction and replaced by fresh medium (200 μl/well) containing varying concentrations of the compound of the formula 1 or vehicle (0.5% DMSO). Compound 1 was added as […] concentrated feed solutions. On every plate 16 wells served as controls and 16 wells were used per concentration of 1. After various times of incubation the cells were fixed with glutardialdehyde and stored in a refrigerator. At the end of the assay all plates were processed simultaneously (staining with 0.02% aqueous crystal violet solution (100 μl/well). Excess dye was removed by rinsing the trays with water for 20 min. The stain bound by the cells was redissolved in 70% ethanol (180 μl/well) while shaking the microplates for about 3 hours. Absorbance (proportional to cell mass) was measured at 578 nm using a BIOTEK 309 Autoreader. The results (mean values±standard deviation) were plotted as growth curves.
# The EGF-receptor independent U373 Human Glioblastoma cell line (obtained from ATCC, Rockville, USA) was cultured as above. Treatment with the compound of the formula 1 and analysis of growth inhibition was performed analogous to Example 3.
# [5] = test system: U251 xenograft; assay: Mouse xenograft model U251; type: in vivo; conditions: Brain, CDKN2A/p53/PTEN; oral twice daily dosing
# Description: as §1, §2
# [6] = Pharmacokinetics in mouse plasma and brain after oral dosing; type: in vivo
# Description: Standard curves were established for the compound 1 reextracted from serum samples and brain homogenates, using the related compound 2 as internal standard. 200 μl serum samples prepared from mouse or human blood, and homogenates of 0.2 g mouse brain tissue in 0.3 ml saturated NaCl solution, were spiked with a range of concentrations of compound 1 at 10 nM, 30 nM, 100 nM, 300 nM, 1 μM, 3 μM in a mix with 500 nM of compound 2 as internal standard in DMSO (final DMSO not exceeding 2%). Serum and homogenate samples were mixed with 100 μl conc. Ammonia, and 200 μl sat'd NaCl solution was added to the serum samples. […] were reextracted twice with 2 ml ethylacetate each by vigorous vortexing for 1 min. Combined organic extracts were evaporated in a SpeedVac, and residues were taken up in 300 μl of 40% water/60% methanol (0.1% formic acid). Samples were analyzed by reversed phase HPLC on a […] Zorbox 300SB-C8 2.1×150 mm column at 45° C. […]
# Mice were dosed at 12.5 mg/kg in a vehicle of 50 mM (−)-lactic acid in 50% PEG400, and sacrificed by cardiac puncture after various time intervals. […] Reextraction was performed, and ratios of analyte 1 and internal standard 2 were determined as described above. The concentrations of compound 1 in the serum and brain samples was calculated from the standard curve.
smiles,measurement,setting,value
CNC(=O)[C@@]1(N)C[C@H]2O[C@]1(C)n1c3ccccc3c3c4c(c5c6ccccc6n2c5c31)C(=O)NC4 [Compound 1],Mean % Inhibition,[1],78%
same,N tumors with no/neg. growth,[1],4 of 11
same,IC50,[2],0.3 µM
same,IC50,[3],1.23 µM
same,growth arrest of U373 cells,[4],almost completely effective
same,Mean % Inhibition,[5],74%
same,N tumors with no/neg. growth,[5],3 of 11
same,maximal free plasma concentration sustained over prolonged periods,"[6]; in vivo, practical forms of oral dosing",about 200 nM
same,penetration of the CNS,"[6]; mouse plasma and brain, oral dosing",good penetration of the CNS
